Data on 40 compounds can be found in ChEMBL document CHEMBL3407414, “Discovery of AZD3147: a potent, selective dual inhibitor of mTORC1 and mTORC2” (J Med Chem, 2015).

One may read the logD as lipophilicity at a set pH, counting ionised and neutral species. The Papp B→A is the apparent permeability from the basolateral to the apical side of a cell layer. What is called Papp A→B is the apparent permeability from the apical to the basolateral side of a cell layer. As usually defined, the clearance is the volume of plasma or blood freed of the substance per unit of time. Low values mean a low capacity for elimination, high ones a high capacity for elimination. What is called half-life is the time needed for the level to fall by half in the phase considered. Low values mean rapid decline, high ones slow decline. As usually defined, the bioavailability is the share of a dose that reaches the circulation, judged against a reference dose that is usually intravenous. A low value points to little systemic uptake.

Structures are written as SMILES. Some results are limits rather than exact numbers.

Data set [1] can be described thus: Lipophilicity, log D of the compound. In kind it is physicochemical. The settings on record: octanol/water.
The nature of data set [2]: Intrinsic clearance in human hepatocytes assessed per million cells. In kind it is ADME, cell-based, Hepatocyte. The conditions noted are these: read-out: CLH.
Data set [3] concerns human MDR1. The experiment in a line: Apparent permeability from basolateral to apical side of MDCK2 cells expressing human MDR1 at 10 uM. The data set is classed as ADME, cell-based, Canis lupus familiaris, MDCK-II. The conditions noted are these: dog, MDCK-MDR1.
In data set [4] the test system is human MDR1. The experiment in a line: Apparent permeability from apical to basolateral side of MDCK2 cells expressing human MDR1 at 10 uM. In kind it is ADME, cell-based, Canis lupus familiaris, MDCK-II. The conditions noted are these: dog, MDCK-MDR1.
Data set [5] can be described thus: Volume of distribution at steady state in CD-1 mouse. The settings on record: in vivo, read-out: Vdss. In kind it is ADME, organism-based.
Data set [6] in a line: Clearance in Beagle dog at 1 to 3 umol/kg, iv. In kind it is ADME, organism-based, Canis lupus familiaris. The conditions noted are these: in vivo.
Data set [7] is described as follows: Half life in Beagle dog. The data set is classed as ADME, organism-based, Canis lupus familiaris. The settings on record: in vivo.
Data set [8] can be described thus: Clearance in CD-1 mouse at 2.5 to 10 umol/kg, iv. The data set is classed as ADME, organism-based. The settings on record: in vivo.
A short description of data set [9]: Half life in CD-1 mouse. The settings on record: in vivo. The data set is classed as ADME, organism-based.
Data set [10] is described as follows: Volume of distribution at steady state in Beagle dog. In kind it is ADME, organism-based, Canis lupus familiaris. The settings on record: in vivo, read-out: Vdss.
Data set [11] is described as follows: Oral bioavailability in Beagle dog at 3 to 10 umol/kg. In kind it is ADME, organism-based, Canis lupus familiaris. The conditions noted are these: in vivo.
The nature of data set [12]: Oral bioavailability in CD-1 mouse at 5 to 20 umol/kg. The settings on record: in vivo. The data set is classed as ADME, organism-based.

`CS(=O)(=O)Cc1cc(N2CCOCC2)nc(-c2ccc(NC(=O)Nc3ccc(F)cc3)cc2)n1` showed a logD in data set [1] of over 3.2.

Compound `CCNC(=O)Nc1ccc(-c2nc(CS(C)(=O)=O)cc(N3CCOC[C@@H]3C)n2)cc1` came in with a logD in data set [1] of 1.93.

In the case of `CNC(=O)Nc1ccc(-c2nc(CS(C)(=O)=O)cc(N3CCOC[C@@H]3C)n2)cc1`, the logD in data set [1] turned out to be 1.54.

In turn, `CC(C)NC(=O)Nc1ccc(-c2nc(CS(C)(=O)=O)cc(N3CCOC[C@@H]3C)n2)cc1` registered a logD in data set [1] of 2.45.

For `C[C@H]1COCCN1c1cc(CS(C)(=O)=O)nc(-c2ccc(NC(=O)NC3CC3)cc2)n1`, the logD in [1] is 1.9.

The compound `C[C@H]1COCCN1c1cc(CS(C)(=O)=O)nc(-c2ccc(NC(=O)NCCO)cc2)n1` registered a log distribution coefficient (logD) in data set [1] of 1.

With `C[C@H]1COCCN1c1cc(CS(C)(=O)=O)nc(-c2ccc(NC(=O)NCCN(C)C)cc2)n1`, in [1], the logD is 0.3.

With `C[C@H]1COCCN1c1cc(CS(C)(=O)=O)nc(-c2ccc(NC(=O)Nc3ccccc3)cc2)n1`, in data set [1], the logD worked out at 3.3.

In data set [1], `C[C@H]1COCCN1c1cc(CS(C)(=O)=O)nc(-c2ccc(NC(=O)Nc3ccc(F)cc3)cc2)n1` came in with a logD of 3.8.

Turning to `COc1ccc(NC(=O)Nc2ccc(-c3nc(CS(C)(=O)=O)cc(N4CCOC[C@@H]4C)n3)cc2)cc1`, the logD in [1] stood at 2.88.

Turning to `C[C@H]1COCCN1c1cc(CS(C)(=O)=O)nc(-c2ccc(NC(=O)Nc3cnn(C)c3)cc2)n1`, in [1], the logD was 1.85.

In turn, `COc1ccc(CNC(=O)Nc2ccc(-c3nc(CS(C)(=O)=O)cc(N4CCOC[C@@H]4C)n3)cc2)cc1` had a logD in data set [1] of 2.8.

In turn, `CNC(=O)Nc1ccc(-c2nc(CS(=O)(=O)C3CC3)cc(N3CCOC[C@@H]3C)n2)cc1` registered a logD in data set [1] of 2.

In the case of `CNC(=O)Nc1ccc(-c2nc(CS(=O)(=O)C3CCCCC3)cc(N3CCOC[C@@H]3C)n2)cc1`, in data set [1], the logD worked out at 3.6.

`C[C@H]1COCCN1c1cc(CS(=O)(=O)CCCO)nc(-c2ccc(NC(=O)NC3CC3)cc2)n1` registered a logD in [1] of 1.7.

For `CNC(=O)Nc1ccc(-c2nc(CS(=O)(=O)c3ccccc3)cc(N3CCOC[C@@H]3C)n2)cc1`, the logD in [1] amounted to 2.65.

Consider `CNC(=O)Nc1ccc(-c2nc(CS(=O)(=O)c3ccncc3)cc(N3CCOC[C@@H]3C)n2)cc1`, for which the logD in [1] was determined as 2.1.

`C[C@H]1COCCN1c1cc(CS(C)(=O)=O)nc(-c2ccc(NC(=S)NC3CC3)cc2)n1` displayed a logD in [1] of 1.74.

Turning to `CNC(=O)Nc1ccc(-c2nc(CS(C)(=O)=O)cc(N3CCOC[C@@H]3C)n2)cc1OC`, in data set [1], the logD turned out to be 1.79.

In the case of `CNC(=O)Nc1ccc(-c2nc(CS(C)(=O)=O)cc(N3CCOC[C@@H]3C)n2)cc1C`, the logD in data set [1] was 1.5.

For `CNC(=O)Nc1ccc(-c2nc(N3CCOC[C@@H]3C)cc(C(C)(C)S(C)(=O)=O)n2)cc1`, the hepatocyte CLint in data set [2] came to 36.3 µL/min/1e6 cells.

As to `C[C@H]1COCCN1c1cc(C(C)(C)S(C)(=O)=O)nc(-c2ccc(NC(=O)NC3CC3)cc2)n1`, the hepatocyte CLint in data set [2] came to 50 µL/min/1e6 cells. Moreover, the logD in data set [1] turned out to be 2.62.

With `C[C@H]1COCCN1c1cc(C2(S(C)(=O)=O)CC2)nc(-c2ccc(NC(=O)NC3CC3)cc2)n1`, the hepatocyte CLint in data set [2] came out at 37.8 µL/min/1e6 cells. The compound also had a logD in data set [1] of 2.62.

`C[C@H]1COCCN1c1cc(C2(S(C)(=O)=O)CCC2)nc(-c2ccc(NC(=O)NC3CC3)cc2)n1` had a logD in [1] of 3.3.

With `C[C@H]1COCCN1c1cc(C2(S(C)(=O)=O)CCCC2)nc(-c2ccc(NC(=O)NC3CC3)cc2)n1`, in [1], the logD is over 3.4.

With `C[C@H]1COCCN1c1cc(C2(S(C)(=O)=O)CCOCC2)nc(-c2ccc(NC(=O)NC3CC3)cc2)n1`, the logD in data set [1] came out at 2.8.

Consider `C[C@H]1COCCN1c1cc(C2(S(C)(=O)=O)CCC2)nc(-c2ccc(NC(=O)NCCO)cc2)n1`, for which, in data set [1], the logD is 2.4.

In [1], `C[C@H]1COCCN1c1cc(C2(S(=O)(=O)CCCO)CC2)nc(-c2ccc(NC(=O)NC3CC3)cc2)n1` displayed a logD of 2.4.

In the case of `C[C@H]1COCCN1c1cc(C(C)(C)S(C)(=O)=O)nc(-c2ccc(NC(=S)NCCO)cc2)n1`, in [1], the logD is 2.15.

`C[C@H]1COCCN1c1cc(C2(S(=O)(=O)C3CC3)CC2)nc(-c2ccc(NC(=O)NC3CC3)cc2)n1` displayed a logD in data set [1] of 2.94.

In turn, `C[C@H]1COCCN1c1cc(C2(S(=O)(=O)c3ccc(F)cc3)CC2)nc(-c2ccc(NC(=O)NCCO)cc2)n1` showed a pH-dependent lipophilicity (logD) in data set [1] of 3.01.

For the compound `CNC(=O)Nc1ccc(-c2nc(N3CCOC[C@@H]3C)cc(C3(S(=O)(=O)c4ccncc4)CC3)n2)cc1`, in [1], the logD amounted to 2.5.

For the compound `C[C@H]1COCCN1c1cc(C2(S(=O)(=O)C3CC3)CC2)nc(-c2ccc(NC(=O)NCCO)cc2)n1`, the logD in [1] worked out at 2.1.

For the compound `C[C@H]1COCCN1c1cc(C2(S(C)(=O)=O)CC2)nc(-c2ccc(NC(=S)NCCO)cc2)n1`, the Papp B→A at 10 µM with human MDR1 [3] came to 17 ×10⁻⁶ cm/s. Further, the logD in [1] amounted to 1.78. Besides, the Papp A→B at 10 µM with human MDR1 [4] amounted to 0.07 ×10⁻⁶ cm/s.

Turning to `C[C@H]1COCCN1c1cc(C2(S(=O)(=O)c3ccccc3)CC2)nc(-c2ccc(NC(=O)NCCO)cc2)n1`, the Papp B→A at 10 µM with human MDR1 [3] came out at 24 ×10⁻⁶ cm/s. The compound also came in with a logD in [1] of 2.8. In addition, the Papp A→B at 10 µM in the data set with human MDR1 [4] worked out at 0.18 ×10⁻⁶ cm/s.

With `C[C@H]1COCCN1c1cc(C2(S(=O)(=O)c3ccccc3)CC2)nc(-c2ccc(NC(=O)NCCCO)cc2)n1`, in the data set on human MDR1 [3], the Papp B→A at 10 µM is 31 ×10⁻⁶ cm/s. Also, the logD in data set [1] came out at 2.85. In addition, the Papp A→B at 10 µM in the data set with human MDR1 [4] was 0.15 ×10⁻⁶ cm/s.

Turning to `C[C@H]1COCCN1c1cc(C2(S(=O)(=O)C3CC3)CC2)nc(-c2ccc(NC(=S)NCCO)cc2)n1`, the Vd in data set [5] turned out to be 2.3 L/kg; in data set [10] it was 2 L/kg. In the data set with human MDR1 [3], the Papp B→A at 10 µM was found to be 43 ×10⁻⁶ cm/s. Also, the clearance is 16 mL/min/kg in data set [6] and 8 mL/min/kg in [8]. The half-life in [7] was 1.9 h; in data set [9], 0.9 h. In data set [1], the logD was 2.1. Moreover, the bioavailability in [11] worked out at 73%; in data set [12], 61%. Moreover, the Papp A→B at 10 µM in the data set with human MDR1 [4] was 5.6 ×10⁻⁶ cm/s.

Take `C[C@H]1COCCN1c1cc(C2(S(=O)(=O)CCCO)CC2)nc(-c2ccc(NC(=S)NC3CC3)cc2)n1`: the Papp B→A at 10 µM in the data set with human MDR1 [3] was 22 ×10⁻⁶ cm/s. Moreover, the logD in data set [1] came out at 2.2. Moreover, in the data set on human MDR1 [4], the Papp A→B at 10 µM was found to be 0.18 ×10⁻⁶ cm/s.

In turn, `C[C@H]1COCCN1c1cc(C2(S(=O)(=O)CCCO)CC2)nc(-c2ccc(NC(=S)NCCO)cc2)n1` registered a logD in data set [1] of 1.6.

With `CNC(=O)c1cccc(-c2ccc3c(N4CCOC[C@@H]4C)nc(N4CCOC[C@@H]4C)nc3n2)c1` [VISTUSERTIB], in data set [2], the hepatocyte CLint was under 4.2 µL/min/1e6 cells.
